# From patent US7598417B2, “Substituted fluoroethyl ureas as alpha 2 adrenergic agents” (Allergan, Inc., priority 2007, dated 2009)
# Where two headings read alike, the source gives them in different places.
# Assays:
# Type in all cases: cell-based
# alpha2A receptor = molecular target: T1, alpha2A receptor (Homo sapiens, UniProt P08913); assay: Receptor Selection and Amplification Technology (RSAT) assay, alpha2A; settings: for Alpha 2A IA (intrinsic activity): ratio of maximal effect of the drug to maximal effect of standard full agonist brimonidine (UK14304)
# T1 construct: expressed in transfected cells; host or cells: NIH-3T3
# T1 sequence (P08913 1-465): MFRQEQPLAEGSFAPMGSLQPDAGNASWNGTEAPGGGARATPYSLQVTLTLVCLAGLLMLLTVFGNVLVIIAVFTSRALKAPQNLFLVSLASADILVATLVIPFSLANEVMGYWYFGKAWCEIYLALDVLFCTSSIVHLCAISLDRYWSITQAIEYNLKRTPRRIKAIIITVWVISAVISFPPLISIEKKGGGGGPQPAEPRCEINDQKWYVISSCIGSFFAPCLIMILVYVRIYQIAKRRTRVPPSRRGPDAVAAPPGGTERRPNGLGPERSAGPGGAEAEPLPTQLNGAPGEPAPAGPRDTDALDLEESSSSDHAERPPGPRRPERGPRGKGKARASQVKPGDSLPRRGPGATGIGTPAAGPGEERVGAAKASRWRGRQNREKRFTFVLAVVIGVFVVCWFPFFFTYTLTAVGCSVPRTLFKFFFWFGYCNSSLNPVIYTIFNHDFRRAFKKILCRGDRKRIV
# Procedure: (§1) Receptor Selection and Amplification Technology (RSAT) Assay
# (§2) The RSAT assay measures a receptor-mediated loss of contact inhibition that results in selective proliferation of receptor-containing cells in a mixed population of confluent cells. The increase in cell number is assessed with an appropriate transfected marker gene such as β-galactosidase, the activity of which can be easily measured in a 96-well format. Receptors that activate the G protein, Gq, elicit this response. Alpha2 receptors, which normally couple to Gi, activate the RSAT response when coexpressed with a hybrid Gq protein that has a Gi receptor recognition domain, called Gq/i5.
# (§3) NIH-3T3 cells are plated at a density of 2×10^6 cells in 15 cm dishes and maintained in Dulbecco's modified Eagle's medium supplemented with 10% calf serum. One day later, cells are cotransfected by calcium phosphate precipitation with mammalian expression plasmids encoding p-SV-β-galactosidase (5-10 μg), receptor (1-2 μg) and G protein (1-2 μg). 40 μg salmon sperm DNA may also be included in the transfection mixture. Fresh media is added on the following day and 1-2 days later, cells are harvested and frozen in 50 assay aliquots. Cells are thawed and 100 μl added to 100 μl aliquots of various concentrations of drugs in triplicate in 96-well dishes. Incubations continue 72-96 hr at 37° C. After washing with phosphate-buffered saline, β-galactosidase enzyme activity is determined by adding 200 μl of the chromogenic substrate (consisting of 3.5 mM o-nitrophenyl-β-D-galactopyranoside and 0.5% nonidet P-40 in phosphate buffered saline), incubating overnight at 30° C. and measuring optical density at 420 nm. The absorbance is a measure of enzyme activity, which depends on cell number and reflects a receptor-mediated cell proliferation. The efficacy or intrinsic activity is calculated as a ratio of the maximal effect of the drug to the maximal effect of a standard full agonist for each receptor subtype. Brimonidine, also called UK14304, the chemical structure of which is shown below, is used as the standard agonist for the alpha2A, alpha2B and alpha2C receptors. The EC50 is the concentration at which the drug effect is half of its maximal effect.
# (§4) EC50 values are nanomolar. NA stands for “not active” at concentrations less than 10 micromolar. IA stands for “intrinsic activity.”
# alpha2C receptor = molecular target: T2, alpha2C receptor (Homo sapiens, UniProt P18825); assay: Receptor Selection and Amplification Technology (RSAT) assay, alpha2C; settings: for Alpha 2C IA (intrinsic activity): ratio of maximal effect of the drug to maximal effect of standard full agonist brimonidine (UK14304)
# T2 construct: expressed in transfected cells; host or cells: NIH-3T3
# T2 sequence (P18825 1-462): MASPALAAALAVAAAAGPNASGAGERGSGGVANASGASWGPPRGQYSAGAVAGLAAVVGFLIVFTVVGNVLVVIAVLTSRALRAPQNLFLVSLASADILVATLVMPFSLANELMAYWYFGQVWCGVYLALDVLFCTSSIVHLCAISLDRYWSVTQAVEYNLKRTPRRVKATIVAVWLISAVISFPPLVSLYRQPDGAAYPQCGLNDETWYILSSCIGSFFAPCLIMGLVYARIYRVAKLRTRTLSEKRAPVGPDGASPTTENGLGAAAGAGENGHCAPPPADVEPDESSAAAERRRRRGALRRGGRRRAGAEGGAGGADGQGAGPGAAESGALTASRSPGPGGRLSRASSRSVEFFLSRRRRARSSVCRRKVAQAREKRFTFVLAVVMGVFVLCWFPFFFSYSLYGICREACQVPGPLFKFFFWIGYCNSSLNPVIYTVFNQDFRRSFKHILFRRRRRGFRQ
# Procedure: as §1, §2, §3, §4
# alpha2B receptor = molecular target: T3, alpha2B receptor (Homo sapiens, UniProt P18089); assay: Receptor Selection and Amplification Technology (RSAT) assay, alpha2B; settings: for Alpha 2B IA (intrinsic activity): ratio of maximal effect of the drug to maximal effect of standard full agonist brimonidine (UK14304)
# T3 construct: expressed in transfected cells; host or cells: NIH-3T3
# T3 sequence (P18089 1-450): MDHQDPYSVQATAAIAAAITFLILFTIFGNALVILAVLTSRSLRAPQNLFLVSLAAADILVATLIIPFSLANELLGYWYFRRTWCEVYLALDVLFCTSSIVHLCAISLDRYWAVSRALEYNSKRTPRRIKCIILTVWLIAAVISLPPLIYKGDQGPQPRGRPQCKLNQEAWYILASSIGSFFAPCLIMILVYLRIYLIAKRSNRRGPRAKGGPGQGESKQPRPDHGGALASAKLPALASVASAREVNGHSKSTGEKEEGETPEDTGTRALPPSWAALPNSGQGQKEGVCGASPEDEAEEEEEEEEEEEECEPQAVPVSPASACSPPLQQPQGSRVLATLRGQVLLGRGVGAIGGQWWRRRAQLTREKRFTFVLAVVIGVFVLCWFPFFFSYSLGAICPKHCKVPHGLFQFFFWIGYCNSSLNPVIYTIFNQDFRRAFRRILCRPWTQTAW
# Procedure: as §1, §2, §3
# The results of the RSAT assay with several exemplary compounds of the invention are disclosed in Table 1 above together with the chemical formulas of these exemplary compounds. EC50 values are nanomolar. NA stands for “not active” at concentrations less than 10 micromolar. IA stands for “intrinsic activity.”
# [1] = RSAT, NIH-3T3 cells cotransfected with receptor and Gq/i5, not active = not active at concentrations less than 10 micromolar, read-out: Alpha 2A EC50
# [2] = RSAT, NIH-3T3 cells cotransfected with receptor and Gq/i5, not active = not active at concentrations less than 10 micromolar, read-out: Alpha 2C EC50
# [3] = RSAT, NIH-3T3 cells cotransfected with receptor and Gq/i5, not active = not active at concentrations less than 10 micromolar, read-out: Alpha 2B EC50
# [4] = RSAT, NIH-3T3 cells cotransfected with receptor and Gq/i5, not active = not active at concentrations less than 10 micromolar
Structure (SMILES),EC50 (alpha2A receptor; [1]) [nM],Alpha 2A IA (intrinsic activity) (alpha2A receptor),EC50 (alpha2C receptor; [2]) [nM],Alpha 2C IA (intrinsic activity) (alpha2C receptor),EC50 (alpha2B receptor; [3]) [nM],Alpha 2B IA (intrinsic activity) (alpha2B receptor),Alpha 2A EC50 (alpha2A receptor; [4]),Alpha 2C EC50 (alpha2C receptor; [4]),Alpha 2B EC50 (alpha2B receptor; [4]),EC50 (alpha2A receptor) [nM],EC50 (alpha2C receptor) [nM],EC50 (alpha2B receptor) [nM]
O=C(NCCF)NC1CCc2c(OC(=O)c3ccccc3)cccc21 (centres unmarked),95,0.62,102,0.73,8.3,0.95,–,–,–,–,–,–
CCc1cccc2c1CCC2NC(=O)NCCF (centres unmarked),–,–,103,0.47,10.6,0.99,not active,–,–,–,–,–
Cc1cccc2c1CCCC2NC(=O)NCCF (centres unmarked),48,0.41,123,1.03,5.6,1.3,–,–,–,–,–,–
O=C(NCCF)NC1Cc2ccc(F)cc2C1 (centres unmarked),–,–,–,–,2200,0.93,not active,not active,–,–,–,–
COc1cccc2c1C(NC(=O)NCCF)CC2 (centres unmarked),277,0.48,972,0.54,544,0.63,–,–,–,–,–,–
O=C(NCCF)NC1CCCCc2ccccc21 (centres unmarked),534,0.3,967,0.5,212,0.65,–,–,–,–,–,–
O=C(NCCF)NC1CCCCc2ccc(F)cc21 (centres unmarked),> 2000,0.31,341,0.3,913,0.54,–,–,–,–,–,–
COc1ccc2c(c1)C(NC(=O)NCCF)CC2 (centres unmarked),–,–,1460,0.31,300,0.81,not active,–,–,–,–,–
Cc1ccc2c(c1)CC(NC(=O)NCCF)C2 (centres unmarked),–,–,–,–,637,0.6,not active,not active,–,–,–,–
CC1Cc2ccccc2C1NC(=O)NCCF (centres unmarked),–,–,–,–,26.4,0.85,not active,not active,–,–,–,–
O=C(NCCF)NC1CCCc2c(Cl)cccc21 (centres unmarked),168,0.42,310,0.72,29,1.11,–,–,–,–,–,–
O=C(NCCF)NC1CCc2cccnc21 (centres unmarked),–,–,–,–,3080,0.81,not active,not active,–,–,–,–
O=C(NCCF)NC1CCc2ncccc21 (centres unmarked),2550,0.55,2460,0.41,100,1.08,–,–,–,–,–,–
CCC1=CCCCC1NC(=O)NCCF (centres unmarked),–,0.64,–,0.59,–,1.22,–,–,–,184,348,45
COc1ccc2c(c1)CC(NC(=O)NCCF)C2 (centres unmarked),–,–,–,–,1370,0.45,not active,not active,–,–,–,–
O=C(NCCF)NC1Cc2ccccc2C1,–,–,246,0.48,18,0.92,not active,–,–,–,–,–
CCC1=CC(NC(=O)NCCF)CCC1 (centres unmarked),–,–,346,0.32,–,–,not active,–,not active,–,–,–

# Further lines, with some results ahead:
EC50 (alpha2A receptor; [1]) [nM],Alpha 2A IA (intrinsic activity) (alpha2A receptor),EC50 (alpha2C receptor; [2]) [nM],Alpha 2C IA (intrinsic activity) (alpha2C receptor),EC50 (alpha2B receptor; [3]) [nM],Alpha 2B IA (intrinsic activity) (alpha2B receptor),Alpha 2A EC50 (alpha2A receptor; [4]),Alpha 2C EC50 (alpha2C receptor; [4]),Alpha 2B EC50 (alpha2B receptor; [4]),Structure (SMILES),EC50 (alpha2A receptor) [nM],EC50 (alpha2C receptor) [nM],EC50 (alpha2B receptor) [nM]
120,0.59,67.2,0.79,1.2,1.1,–,–,–,Cc1cccc2c1CCC2NC(=O)NCCF (centres unmarked),–,–,–
429,0.48,1300,0.54,36.6,1.0,–,–,–,Nc1cccc2c1CCC2NC(=O)NCCF (centres unmarked),–,–,–
–,–,–,–,845,0.31,not active,not active,–,O=C(NCCF)NC1CCc2cc(Cl)ccc21 (centres unmarked),–,–,–
59.6,0.41,95.4,0.55,8.8,1.08,–,–,–,O=C(NCCF)NC1CCc2cccc(F)c21 (centres unmarked),–,–,–
64.6,0.97,103,0.7,2.7,1.06,–,–,–,O=C(NCCF)NC1CCc2c(Br)cccc21 (centres unmarked),–,–,–
–,–,192,0.64,6.3,1.21,not active,–,–,O=C(NCCF)NC1CCc2ccccc21 (centres unmarked),–,–,–
–,–,543,0.54,88,0.59,not active,–,–,O=C(NCCF)NC1CCc2cc(F)ccc21 (centres unmarked),–,–,–
–,–,29.5,0.43,72.4,1.0,not active,–,–,O=C(NCCF)NC1CCc2ccc(Cl)c(Cl)c21 (centres unmarked),–,–,–
–,–,117,0.53,18.7,0.97,not active,–,–,O=C(NCCF)NC1CCc2ccc(F)c(F)c21 (centres unmarked),–,–,–
68.3,0.52,107,0.76,8.2,1.03,–,–,–,O=C(NCCF)NC1CCCc2c(F)cccc21 (centres unmarked),–,–,–
–,–,182,0.32,21,0.68,not active,–,–,O=C(NCCF)NC1Cc2cccc(F)c2C1 (centres unmarked),–,–,–
